According to US11286304B2, “Anti-galectin-7 antibody, kit comprising the same, and uses thereof” (Academia Sinica, priority 2018, dated 2022):

Assays:
[1] = test system: galectin-7; assay: Galectin-7 expression in keratinocytes (real-time PCR, immunoblot); format: cell-based, human; conditions: for galectin-7 expression: keratinocytes, other statin drugs, data not shown; for galectin-7 protein expression: treated with cytokines for 2 days, immunoblot; for galectin-7 mRNA and protein expression: 24 hours, methylprednisolone 10.6 μM, tobramycin 8.6 μM, fluvastatin 9.2 μM, pempidine 13 μM
Protocol: Human keratinocyte cell line HaCaT was maintained at 37° C. in Dulbecco's modified Eagle's medium (DMEM) supplemented with 10% of fetal bovine serum (FBS), 2 mM glutamine, 100 U/ml penicillin and 100 μg/ml streptomycin. Short hairpin RNA (shRNA) reagents were obtained from the National RNAi Core Facility located at the Institute of Molecular Biology and Genomic Research Center, Academia Sinica, supported by the National Core Facility Program for Biotechnology Grants of NSC. Four shRNAs with clone IDs of TRCN0000057393, TRCN0000057394, TRCN0000057395, and TRCN0000057396 were used to generate stable galectin-7 knockdown HaCaT clones. HaCaT cells were infected with one of the four shRNA-expressing lentiviruses and puromycin was employed to select stable cell clones after 3 days of infection. After puromycin selection, four individual pooled clones were cultured in puromycin-free medium for 2 weeks before further analysis.
Primary neonatal human epithelial keratinocytes, HEKn cells, were purchased from Gibco. HEKn cells were cultured at 37° C. in keratinocyte serum-free medium (K-SFM) supplemented with 30 μg/ml bovine pituitary extract and 5 ng/ml recombinant human epidermal growth factor from the same company. Compared with HaCaT cells, HEKn cells have a limited proliferation ability and are not suitable for establishing shRNA-based stable knockdown cells; therefore, a small interfering RNA (siRNA) oligo was used to transiently knock down the expression of galectin-7. The Silencer® Select siRNAs were purchased from Invitrogen, including negative control #1 and a predesigned siRNA targeting human galectin-7 (Catalog number: s230574, which targets the sequence of exon 3 of NM_002307.3). Thirty picomoles of siRNAs were delivered into HEKn cells in a 6-well plate setup by means of Lipofectamine 2000.
Cells were harvested and lysed in RIPA lysis buffer containing 1% of Triton X-100 and a protease inhibitor cocktail, and total protein concentrations were measured with a protein assay kit. Proteins in the samples of the lysates with the same amounts of total protein were separated by sodium dodecyl sulfate polyacrylamide gel electrophoresis (SDS-PAGE) and analyzed by immunoblotting. Primary antibodies against phospho-Erk1 (pT202)/Erk2 (pT185), Erk1, Erk2, NF-κB p65, phospho-NF-κB p65 (pS536), IκBα, phospho-IκBα pS32, β-actin, or GAPDH were applied to detect the corresponding proteins. Horseradish peroxidase (HRP)-conjugated secondary antibodies against mouse, rabbit, or goat IgG were then incubated with the membranes, and proteins were visualized by chemiluminescence according to the manufacturer's instructions. Protein quantification was performed by software.
Total RNAs (including mRNA and miRNA) were extracted from cultured cells or mouse ears with the TRIzol Reagent. For measurement of human galectin-7, IL-6, IL-8, IL-17A, and IFN-γ levels, mRNAs were reverse-transcribed into cDNA by means of the cDNA synthesis kit, and real-time PCR was carried out with specific probes accompanied with primers targeting humangalectin-7, IL-6, and IL-8 according to the manufacturer's instructions.

[2] = test system: IL-6; assay: IL-6 production by keratinocytes (ELISA); format: cell-based, human; conditions: for IL-6 production: HaCaT and HEKn cells subjected to immune stimuli, ELISA; for IL-6 production induced by IL-17A: galectin-7 knockdown keratinocytes, data not shown
Protocol: (§1) To measure the concentrations of proinflammatory cytokines secreted by keratinocytes, 2×10^4 cells were seeded in 96-well plates. Cells were incubated for 24 hours and then treated with 50 μg/ml LPS, 100 ng/ml human TNF-α, 100 or 200 ng/ml human IL-17A, 200 ng/ml human IL-22, 100 ng/ml human IL-23, or 50 ng/ml IFN-γ at 37° C. for 48 hours. In addition, the MEK inhibitor PD98059 was added along with stimulation by LPS or IL-17A (48 hours). The supernatants were then collected and analyzed by ELISAs, which were performed using a specific combination of paired antibodies (capture and detection antibodies).

[3] = test system: IL-8; assay: IL-8 production by keratinocytes (ELISA); format: cell-based, human; conditions: for IL-8 production: HaCaT and HEKn cells subjected to immune stimuli, ELISA; for IL-8 production induced by IL-17A: galectin-7 knockdown keratinocytes, data not shown
Protocol: as §1

[4] = test system: miR-146a; assay: miR-146a expression in keratinocytes (real-time PCR); format: cell-based, human; conditions: HaCaT and HEKn cells treated with IL-17A
Protocol: For miR-146a quantification, total RNA samples were converted to cDNA, and real-time PCR was conducted with specific primers targeting miR-146a. Human GAPDH and U6 snRNA were selected as internal controls for normalization of the levels of mRNAs and miRNAs, respectively. Relative levels of mRNAs and miRNAs were calculated, and fold changes were obtained by the ΔΔCt method and compared with vector-only control cells.

[5] = test system: galectin-7; assay: Galectin-7 protein in lung cancer cells (immunoblot); format: cell-based, human; conditions: for effect on fluvastatin-induced galectin-7 upregulation: co-administered with fluvastatin, 200 μM Mevalonate, 20 μM GGPP, 20 μM FPP
Protocol: (§2) CL83, CL141, CL100, CL25, PC9, PC9-IR, CL97, H1975, and H3255 cells were obtained from Dr. Pan-Chyr Yang (National Taiwan University, Taiwan), and A-431 (ATCC© CRL-1555™), H1650 ((ATCC© CRL-5883™)) and HCC827 ((ATCC© CRL-2868™)) cells were purchased from ATCC. Cells were cultured in RPMI 1640 medium supplemented with 10% fetal bovine serum (Gibco). The mRNA of A549, H23, H226BR, H358, H460, H661, H928, H1299, H1435, and H1437 cells were produced by conventional method, such as the method as described herein.
Lysates from different lung cancer cell samples were prepared and aliquots containing 30 μg of protein from each lysate were analyzed using either 10% or 12% sodium dodecyl sulfate-polyacrylamide gel electrophoresis (SDS-PAGE). A polyvinylidene difluoride Immobilon H-bond membrane (EMD Millipore) was used for immunoblot analysis. The primary antibody against galectin-7 (Novagen) was used.

[6] = test system: galectin-7; assay: Galectin-7 levels in lung cancer tumors transplanted in NOD SCID mice (IHC, immunoblot); format: in vivo; conditions: NOD SCID mice with A549, PC9, PC9-IR cells, 30 mg/kg daily oral gavage, day 21, vs saline
Protocol: NOD.CB17-Prkdcscid/JNarl mice obtained from National Laboratory Animal Center (Taiwan) were engrafted 2×10^6 lung cancer cells subcutaneously at the left and right flanks of the mice. After 10 days of tumor growth, mice were treated by oral gavage with 30 mg/kg fluvastatin or lovastatin in saline solution, or saline solution alone as control, once per day for 21 days. The tumor plaques were harvested and each of them was cut into two pieces. One piece was for immunoblot analysis, and the other one was fixed with 10% formalin and embedded into paraffin block for IHC staining. All animal studies were conducted in the experimental animal facilities of Institute of Biomedical Sciences, Academia Sinica, Taipei, Taiwan, in accordance to institutional rules and ethical guidelines for experimental animal care.

[7] = test system: S100A7; assay: S100A7 mRNA expression in HaCaT cells (real-time PCR); format: cell-based, human; conditions: 24 hours, methylprednisolone 10.6 μM, tobramycin 8.6 μM, fluvastatin 9.2 μM, pempidine 13 μM
[8] = test system: galectin-7; assay: Galectin-7 mRNA in lung cancer cell lines (qPCR); format: cell-based, human; conditions: CL100 and PC9-IR cells, 24 hours; methylprednisolone 10.6 μM, tobramycin 8.6 μM, fluvastatin 9.2 μM, pempidine 13 μM
Protocol: as §2
Total RNA from each lung cancer cell clone was extracted using TRIzol Reagent (Invitrogen), and cDNA for real-time PCR was generated using the iScript cDNA synthesis kit (Bio-Rad). Quantitative real-time PCR was performed using TaqMan buffer (Roche), and the primers and probes were designed using the Roche Universal Library (UPL). […] For real-time PCR, the CFX Connect Real-Time PCR System (Bio-Rad) was used, and the data were analyzed using CFX Manager software, in which the ΔΔCt method was employed to normalize the data against the endogenous control GAPDH.

For `CC[C@H](C)C(=O)O[C@H]1CCC=C2C=C[C@H](C)[C@H](CC[C@@H]3C[C@@H](O)CC(=O)O3)[C@H]21` [mevastatin], the galectin-7 expression [1] was “induced galectin-7 expression”.

`O=C(O)C[C@H](O)C[C@H](O)/C=C/c1c(C2CC2)nc2ccccc2c1-c1ccc(F)cc1` [pitavastatin] was tested, and the galectin-7 expression [1] was “induced galectin-7 expression”.

“IL-17A: cytokine known to promote psoriatic inflammation” was tested, and the galectin-7 protein expression ([1]; HEKn cells) was “reduced”, the galectin-7 protein expression ([1]; HaCaT cells) was “reduced” and the IL-6 production [2] was “induced”. The IL-8 production [3] was “induced” and the miR-146a expression [4] was “induced miR-146a expression”.

For `CC(C)=CCC/C(C)=C/CC/C(C)=C/CC/C(C)=C/COP(=O)(O)OP(=O)(O)O` [GGPP], the “effect on fluvastatin-induced galectin-7 upregulation” value ([5]; PC9-IR cells, 24 hours) was “blocked”.

For `C[S+]([O-])c1ccc(-c2nc(-c3ccncc3)c(-c3ccc(F)cc3)[nH]2)cc1` (centres unmarked) [SB203580], the “IL-6 production induced by IL-17A” value [2] was “not blocked” and the “IL-8 production induced by IL-17A” value [3] was “not blocked”.

In the case of “IFN-γ: interferon (IFN)-γ, immune stimulus”, the galectin-7 protein expression ([1]; HaCaT cells) is reported as “modest effects”, the IL-6 production [2] is reported as “only IL-17A (FIG. 2), TNF-α, and LPS (data not shown) induced” and the IL-8 production [3] is reported as “only IL-17A (FIG. 2), TNF-α, and LPS (data not shown) induced”.

For `CC[C@H](C)C(=O)O[C@H]1C[C@@H](C)C=C2C=C[C@H](C)[C@H](CC[C@@H]3C[C@@H](O)CC(=O)O3)[C@H]21` [lovastatin], the galectin-7 expression [1] was “induced galectin-7 expression” and the “galectin-7 expression in transplanted tumors” value [6] was “increased”.

For TNF-α, the galectin-7 protein expression ([1]; HaCaT cells) was “significantly reduced”, the IL-6 production [2] was “induced” and the IL-8 production [3] was “induced”.

In the case of `CC(C)=CCC/C(C)=C/CC/C(C)=C/COP(=O)(O)OP(=O)(O)O` [FPP], the “effect on fluvastatin-induced galectin-7 upregulation” value ([5]; PC9-IR cells, 24 hours) is reported as “blocked”.

For “epidermal growth factor (EGF): epidermal growth factor, activates EGFR signaling”, the galectin-7 expression ([5]; CL25, CL100, PC9 and PC9-IR cells starved overnight, 10 ng/ml EGF) was “transiently upregulated”.

In the case of `COc1cc2ncnc(Nc3ccc(F)c(Cl)c3)c2cc1OCCCN1CCOCC1` [gefitinib], the “galectin-7 level (endogenous)” value ([5]; CL25 and CL100 cells, 10 μM, 24 hours) is reported as “downregulated” and the “level of ectopically overexpressed galectin-7” value ([5]; CL83, CL141 and PC9 cells, 10 μM, 24 hours) is reported as “also downregulated”.

In the case of `NC[C@H]1O[C@H](O[C@H]2[C@H](O)[C@@H](O[C@H]3O[C@H](CO)[C@@H](O)[C@H](N)[C@H]3O)[C@H](N)C[C@@H]2N)[C@H](N)C[C@@H]1O` [tobramycin], the “galectin-7 mRNA and protein expression” value ([1]; HaCaT cells) is reported as “only fluvastatin induced”, the “S100A7 mRNA expression” value [7] is reported as “only fluvastatin” and the “galectin-7 expression (LGLAS7 mRNA)” value [8] is reported as “only fluvastatin induced”.

`CN1C(C)(C)CCCC1(C)C` [pempidine] was tested, and the “galectin-7 mRNA and protein expression” value ([1]; HaCaT cells) was “only fluvastatin induced”, the “S100A7 mRNA expression” value [7] was “only fluvastatin” and the “galectin-7 expression (LGLAS7 mRNA)” value [8] was “only fluvastatin induced”.

`CC(C)=CCCC(C)=CCCC(C)=CCSc1ccccc1C(=O)O` [FTS, farnesyl thiosalicylic acid] was tested, and the galectin-7 expression ([5]; PC9-IR cells, 1 μM fluvastatin, FTS, 24 hours) was “increased galectin-7 expression”.

For `CC(O)(CCO)CC(=O)O` (centres unmarked) [mevalonate], the “effect on statin-induced upregulation of galectin-7” value ([5]; PC9-IR cells, 200 μM mevalonate with 10 μM statins, 24 hours) was “reversed” and the “effect on fluvastatin-induced galectin-7 upregulation” value ([5]; PC9-IR cells, 24 hours) was “reversed”.

With `CC(C)c1c(C(=O)Nc2ccccc2)c(-c2ccccc2)c(-c2ccc(F)cc2)n1CC[C@@H](O)C[C@@H](O)CC(=O)O` [atorvastatin] the galectin-7 expression [1] was “induced galectin-7 expression”.

For `COc1cccc(-c2cc(=O)c3ccccc3o2)c1N` [PD98059], the “IL-6 production induced by IL-17A” value [2] was “significantly blocked” and the “IL-8 production induced by IL-17A” value [3] was “significantly blocked”.

In the case of `S=C(S)N1CCCC1` [PDTC], the “IL-6 production induced by IL-17A” value [2] is reported as “not blocked” and the “IL-8 production induced by IL-17A” value [3] is reported as “not blocked”.

IL-21: immune stimulus was tested, and the IL-6 production [2] was “only IL-17A (FIG. 2), TNF-α, and LPS (data not shown) induced” and the IL-8 production [3] was “only IL-17A (FIG. 2), TNF-α, and LPS (data not shown) induced”.
